What was measured:
rat brain mitochondria [1] = test: Mitochondrial membrane potential (safranine test); type: biochemical, Wistar rats; conditions: compounds did react with safranine in buffer without mitochondria
Procedure: The same experimental conditions were used for the assessment of alterations of the mitochondrial membrane potential, except that safranine was included in incubation medium at a final concentration of 10 mkM and succinate was added before the compounds of the invention. This concentration of safranine was determined before hand as the optimal compromise between signal/baseline ratio and interference of safranine itself with swelling induced by Ca/Pi (safranine tended to enhance Ca/Pi-induced swelling at concentrations above 20 mkM). Changes in the status of the mPT pore were assessed spectrophotometrically at 554 and 524 nm in a cuvette in a Beckman DU 640 spectrophotometer. A554-524 represents the characteristics of mitochondrial potential and A554-characteristics of mitochondrial swelling.

rat brain mitochondria [2] = test: Calcium retention capacity of mitochondria; type: biochemical, Wistar rats; conditions: at concentrations near the IC50
Procedure: Analyses of extramitochondrial Ca^2+ following a bolus dose of Ca^2+ were performed under energized conditions, in a sucrose based buffer (250 mM sucrose, 10 mM HEPES, 1 mM Pi (K), 1 mM MgCl2, 10 μM EGTA, pH 7.2) containing 5 mkM Arsenazo III, 1 μg/ml oligomycin and 20 μM ADP with 5 mM malate and glutamate as respiratory substrates in a cuvette in a Beckman DU 640 spectrophotometer.

AMPA receptors = test: AMPA-receptor activity: kainic acid-induced currents in Purkinje cells (patch-clamp); type: cell-based, rat; conditions: mean±SEM, control=100%
Procedure: The analysis of effects of the testing compounds on AMPA receptors was carried out using an electrophysiological patch-clamp method in whole cell configuration (Hamill et al., 1980) of the Purkinje cell fresh isolated from the cerebellum of juvenile rats (12-15 days). The isolation was carried out using a modified method (Kaneda et al., 1988) in which cerebral 400-600 μm sections were incubated for 60 min in the temperature controlled chamber in 10 mL of buffer solution (150 mM NaCl, 5 mM KCl, 2 mM CaCl2, 2 mM MgSO4.7H2O, 10 mM HEPES, 15 mM glucose, pH 7.42). The incubation solution was exchanged with the incubation buffer with pronase (2 mg/mL) and collagenase (1 mg/mL) for 70 min. After a 20 min wash with the original buffer, all sections were placed into the Petri dish and were separated using a Pasteur pipette. All solutions were constantly aerated with 100% O2 at 34° C. The composition of extracellular saline was: 150 mM NaCl, 5 mM KCl, 2.6 mM CaCl2, 2 mM MgSO4.7H2O, 10 mM HEPES, 15 mM glucose, pH 7.36. The transmembrane current was induced as a result of the activation of AMPA receptors by a superfusion with the agonist solution (kainic acid). The currents were measured using borosilicate microelectrodes (resistance […]) filled with 100 mM KCl, 11 mM EGTA, 1 mM CaCl2, 1 mM MgCl2, 10 mM HEPES, 5 mM ATP, pH 7.2. The currents were registered using EPC-9 (HEKA, Germany) and recorded with Pulse software package which was also purchased from HEKA. The analysis of observations was carried out using Pulsefit (HEKA, Germany) and the statistical significance was analyzed using a Student's T-test criteria. Data are presented as mean±SEM in % of control values.
Compounds of the invention were tested in 3-5 neurons. Every concentration of compound was repeated three-four times in every neuron. Data are presented as mean±SEM in % of Control values (Table 13+14, FIGS. 8-12). Control value=100%.

C57BL/6 mice [3] = test: Recognition of the new object (non-spatial recognition memory); type: in vivo
Text: The object recognition test is based on the fact that mice and rats spontaneously explore new object or location of a known object a lot longer than the know object or a known location of an object. This test was first used in rats (Ennaceur A., Delacour J., 1988). It was further shown by others that this type of memory testing is suitable for mice (Dodart J. et al. 1997, Messier C. 1997, Pittenger C. et al., 2002, Ryabinin A. et al., 2002, Sargolini F. et al., 2003). The method of recognition of an object is divided in two stages. The first one involves the recognition of a new location of a known object, which is used to assess spatial memory. The second one includes a test for recognition of a new in order to evaluate the non-spatial memory (Gaffan D., 1992, Kolb B. et al., 1994, Steckler T., 1998). Currently, both are widely used to determine the effectiveness of newly synthesized drugs on memory.
Dimebon and compounds of the invention were dissolved in distilled water and administered orally at 0.05 mL per 10 g of animal mass 1 hour before the training exercise. All animals in the control group were treated with the equivalent dose of vehicle. The testing was performed 48 hours after the training exercise because animals forget the location of the object during the 48-hour resting time.
The following experiment was also performed on 3-4 months old males (C57BL/6 line) with 10 animals in each group. All animals were kept in the animal facility (5 animals per cage) on the 12×12 hours light cycle (8 am-8 pm) with free access to food and water. However, in this case a round bottom testing chamber 52 cm in diameter (20.5 inches) and 34 cm (13.4 inches) high was used. Similarly, brown glass vials were used as test objects which are 2.7 cm in diameter (1.1 inch) and 5.5 cm high (2.2 inch). The testing compounds were administered orally at 0.05 mL per 10 g of animal mass 1 hour before the training exercise. All animals in the control group were treated with the equivalent dose of vehicle. The testing was performed 48 hours after the training exercise because animals forget the location of the object during the 48-hour resting time.
The experimental procedure was identical to the previously described test (Recognition of a new location of a known object). The major difference is in the testing procedure which involved one known object (brown glass vial) and one unknown object. The second glass vial was substituted with metallic cylinder 3 cm (1.2 inches) in diameter and 4.5 cm (1.8 inches) high.
Due to fair differences in the amount of time that each animal surveyed the object, the percentage of the survey time for each animal was determined using this formula: tNL/(tFL+tNL)×100 (where t is time, NL—new location(object), and FL—familiar location(object)). As 100% was taken the total amount of time that animals explored both objects. Subsequently, the statistical significance was analyzed using a Student's t-test criteria.

mice = test: recognition test of new location of a known object (spatial memory); type: in vivo
C57BL/6 mice [4] = conditions: 0.01-0.1 mg/kg; previously shown; cited from earlier work
[5] = 0.05 mg/kg, 1 hour prior to training, test 48 hours after training

Row | SMILES | depolarizing activity in safranine test (rat brain mitochondria [1]) | calcium-retention capacity of mitochondria (rat brain mitochondria [2]) | kainic acid-induced currents in Purkinje cells, % of Control values (AMPA receptors; compound 3 × 10^−5 M) | kainic acid-induced currents in Purkinje cells, % of Control values (AMPA receptors; compound 10^−5 M) | kainic acid-induced currents in Purkinje cells, % of Control values (AMPA receptors; compound 10^−6 M) | kainic acid-induced currents in Purkinje cells, % of Control values (AMPA receptors; compound 10^−7 M) | kainic acid-induced currents in Purkinje cells, % of Control values (AMPA receptors; compound 10^−8 M) | effect on memory in the new object recognition test (C57BL/6 mice [3]; 0.005 mg/kg) | time spent to recognize the known object, % of the total time (C57BL/6 mice [3]; [5]) | time spent to recognize the new object, % of the total time (C57BL/6 mice [3]; [5]) | effect on memory in the new object recognition test (C57BL/6 mice [3]; 0.5 mg/kg) | effect on memory in the new object recognition test (C57BL/6 mice [3]; 1-2 mg/kg) | Influence on memory in the test recognition new localization of known object (mice; Dose of Compound 0.05 mg/kg) | Influence on memory in the test recognition new localization of known object (mice; Dose of Compound 0.1 mg/kg) | Influence on memory in the test recognition new localization of known object (mice; Dose of Compound 0.5 mg/kg) | Influence on memory in the test recognition new localization of known object (mice; Dose of Compound 1.0 mg/kg) | effect on memory in the recognition test of a known object in a new location (C57BL/6 mice [4])
1 | CN1CCc2c(c3cc(Cl)ccc3n2CCc2nc(-c3ccccc3)cs2)C1 [Compound C1-8] | depolarizing activity | increased the calcium-retention capacity of mitochondria | 90 ± 7% | 105 ± 8% | 123 ± 8% | 102 ± 3% | 100 ± 4% |  |  |  |  |  |  |  |  |  | 
2 | Cc1ccc2c(c1)c1c(n2CCc2ccc(C)nc2)CCN(C)C1 [Dimebon, dimebon, reference compound] |  |  |  |  |  |  |  | memory activating effect | 34.4±4.4% | 65.6±4.4% | not statistically significant | the stimulating effect on memory returned | + | + | − | − | dose-dependent activating effect on memory

Reference: US9096591B2, “Tetracyclic compounds” (Medivation Technologies, Inc., priority 2007, dated 2015)
